Drawing on patent US8592448B2 (OSI Pharmaceuticals, LLC, priority 2008, dated 2013), this text covers IC50 for 24 molecules.

T1 sequence (P08581 25-1390): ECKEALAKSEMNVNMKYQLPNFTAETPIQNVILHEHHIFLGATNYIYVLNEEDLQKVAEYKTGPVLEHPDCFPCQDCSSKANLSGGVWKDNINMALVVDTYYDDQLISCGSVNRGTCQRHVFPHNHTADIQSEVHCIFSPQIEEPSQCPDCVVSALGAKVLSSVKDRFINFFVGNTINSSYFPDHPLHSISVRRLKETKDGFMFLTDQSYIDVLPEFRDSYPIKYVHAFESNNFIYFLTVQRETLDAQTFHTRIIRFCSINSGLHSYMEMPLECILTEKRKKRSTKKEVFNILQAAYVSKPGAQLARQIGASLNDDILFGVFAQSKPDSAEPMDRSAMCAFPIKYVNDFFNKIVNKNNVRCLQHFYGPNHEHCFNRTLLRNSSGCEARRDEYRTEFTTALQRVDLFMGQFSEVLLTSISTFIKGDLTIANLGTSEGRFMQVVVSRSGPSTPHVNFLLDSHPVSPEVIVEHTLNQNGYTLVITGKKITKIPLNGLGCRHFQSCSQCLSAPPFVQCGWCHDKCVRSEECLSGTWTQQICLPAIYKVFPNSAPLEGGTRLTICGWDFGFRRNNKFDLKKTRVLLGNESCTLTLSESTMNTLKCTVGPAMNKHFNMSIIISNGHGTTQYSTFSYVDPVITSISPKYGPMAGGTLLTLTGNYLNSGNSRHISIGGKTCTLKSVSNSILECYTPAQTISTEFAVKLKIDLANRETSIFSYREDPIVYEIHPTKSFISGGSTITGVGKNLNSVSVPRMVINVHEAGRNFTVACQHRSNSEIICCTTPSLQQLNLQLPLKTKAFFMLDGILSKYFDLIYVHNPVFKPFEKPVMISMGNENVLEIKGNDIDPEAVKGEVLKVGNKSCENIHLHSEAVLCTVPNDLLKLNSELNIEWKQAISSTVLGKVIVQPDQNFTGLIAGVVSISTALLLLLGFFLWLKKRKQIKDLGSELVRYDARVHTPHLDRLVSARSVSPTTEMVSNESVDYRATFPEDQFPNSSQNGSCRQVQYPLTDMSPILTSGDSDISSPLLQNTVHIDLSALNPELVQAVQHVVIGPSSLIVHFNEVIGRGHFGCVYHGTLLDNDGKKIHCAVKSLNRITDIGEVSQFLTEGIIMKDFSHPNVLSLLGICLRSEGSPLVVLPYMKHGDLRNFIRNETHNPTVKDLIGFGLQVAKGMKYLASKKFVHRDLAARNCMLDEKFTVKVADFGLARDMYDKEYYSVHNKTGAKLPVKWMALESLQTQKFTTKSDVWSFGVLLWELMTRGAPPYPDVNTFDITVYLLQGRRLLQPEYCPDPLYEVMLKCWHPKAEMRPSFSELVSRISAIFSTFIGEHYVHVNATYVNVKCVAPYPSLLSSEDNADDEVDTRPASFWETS

One experiment addresses T1, phosphorylated c-MET (Homo sapiens, UniProt P08581).
T1 construct: endogenous in cells; host or cells: MKN45
Kind of experiment: c-MET cell mechanistic assay (phosphorylated c-MET in MKN45 cells). Format: cell-based. Particulars: MKN45 cell line, four hours incubation, phosphorylated c-MET levels, at least duplicate experiments; read-out: Met mech IC50. The method, then:
The cellular activity of the compounds of the present invention may be determined by the following procedure. MKN45 cells were plated in Falcon 3072 96-well plates in growth media (RPMI, 10% FBS, 1% L-glutamine) at a density of 5000 cells/well and incubated at 37° C., 5% CO2 overnight. The following day, one-tenth volume of a 10× concentration of compounds was added to the wells in a 6-point dilution series. The dilutions series was composed of an initial 1:5 dilution in DMSO, followed by a 1:10 dilution in growth media, for a final DMSO concentration on cells of 0.5%. Control wells were treated with 0.5% DMSO. The typical range of dilution was 10 μM to 3 nM. Once compound was added to the cells, plates were incubated for four hours at 37° C., 5% CO2. Plates were then washed in PBS, and lysed in triton-based lysis buffer. Lysates were transferred to a precoated capture plate made by Biosource (Cat # KH00281). The phosphorylated c-MET levels were measured by incubating with a rabbit polyclonal antibody against phosphorylated c-MET ([pYpYpY1230/1234/1235]) followed by an anti-rabbit antibody conjugated to HRP. Signal was measured on a Wallac Victor plate reader at 450 nm. The DMSO signal of the control wells was defined as 100% and the percent of inhibition of phosphorylated c-Met was expressed as percent of control. IC50 values were determined from the percent of control data using a standard four-parameter model.
The IC50 values of exemplary compounds of the present invention determined in a c-MET cell mechanistic assay using the MKN45 cell line according to the procedures described herein in at least duplicate experiments are abbreviated as follows and are shown in Table 3: A, IC50≦0.1 μM; B, 0.1 μM<IC50≦1 μM; C, 1 μM<IC50≦10 μM; D, IC50>10 μM; ND, not determined. The Example # of Table 3 corresponds to the compound example number as illustrated in the Examples section.
By IC50 is commonly meant the point on the concentration scale where inhibition reaches its midpoint. Take “3-[1-(2,6-Dichloro-3-fluorophenyl)ethyl]-5-[1-(1-methanesulfonylpiperidin-4-yl)-1H-pyrazol-4-yl]-1H-pyrrolo[2,3-b]pyridine [Example 37]”: the IC50 was 0.1 to 1 µM.
Still for that read-out and setting: to `CNC(=O)N1CC=C(c2cnc3[nH]cc(C(C)c4c(Cl)ccc(F)c4Cl)c3c2)CC1` (stereo not drawn) [Example 34, 4-{3-[1-(2,6-Dichloro-3-fluorophenyl)ethyl]-1H-pyrrolo[2,3-b]pyridin-5-yl}-3,6-dihydro-2H-pyridine-1-carboxylic acid methylamide] belongs 0.1 to 1 µM; to `COC(=O)N1CC=C(c2cnc3[nH]cc(C(C)c4c(Cl)ccc(F)c4Cl)c3c2)CC1` (stereo not drawn) [Example 35, 4-{3-[1-(2,6-Dichloro-3-fluorophenyl)-ethyl]-1H-pyrrolo[2,3-b]pyridin-5-yl}-3,6-dihydro-2H-pyridine-1-carboxylic acid methyl ester], 0.1 to 1 µM.
Take `CC(c1c(Cl)ccc(F)c1Cl)c1c[nH]c2ncc(C3=CCN(C(=O)C(O)C(F)(F)F)CC3)cc12` (stereo not drawn) [Example 44]: the half-maximal inhibitory concentration (IC50) lay in the range of 0.1 to 1 µM.
For `CC(c1c(Cl)ccc(F)c1Cl)c1c[nH]c2ncc(-c3cnn(C4CCN(S(N)(=O)=O)CC4)c3)cc12` (stereo not drawn) [Example 52, 4-(4-{3-[1-(2,6-Dichloro-3-fluorophenyl)ethyl]-1H-pyrrolo[2,3-b]pyridin-5-yl}-pyrazol-1-yl)-piperidine-1-sulfonic acid amide], the IC50 lay within 0.1 to 1 µM.
As for `CC(c1c(Cl)ccc(F)c1Cl)c1c[nH]c2ncc(-c3cn(C)cn3)cc12` (stereo not drawn) [Example 54, 3-[1-(2,6-Dichloro-3-fluorophenyl)ethyl]-5-(1-methyl-1H-imidazol-4-yl)-1H-pyrrolo[2,3-b]pyridine], the IC50 fell in the range of 0.1 to 1 µM.
Turning to `C[C@H](c1c(Cl)ccc(F)c1Cl)c1c[nH]c2ncc(C3=CCCNC3)cc12` [Example 66, 3-[(S)-1-(2,6-Dichloro-3-fluorophenyl)ethyl]-5-(1,2,5,6-tetrahydropyridin-3-yl)-1H-pyrrolo[2,3-b]pyridine], the IC50 lay within 0.1 to 1 µM.
For the molecule `C[C@H](c1c(Cl)ccc(F)c1Cl)c1c[nH]c2ncc(-c3ccncc3)cc12` [Example 68, 3-[(S)-1-(2,6-Dichloro-3-fluorophenyl)ethyl]-5-pyridin-4-yl-1H-pyrrolo[2,3-b]pyridine], the IC50 fell in the range of 0.1 to 1 µM.
On to `C[C@H](c1c(Cl)ccc(F)c1Cl)c1c[nH]c2ncc(-c3cnn(CC(=O)O)c3)cc12` [Example 74, (4-{3-[(S)-1-(2,6-Dichloro-3-fluorophenyl)ethyl]-1H-pyrrolo[2,3-b]pyridin-5-yl}-pyrazol-1-yl)-acetic acid], for which the half-maximal inhibitory concentration (IC50) lay in the range of 0.1 to 1 µM.
As to `C[C@@H](c1c(Cl)ccc(F)c1Cl)c1c[nH]c2ncc(-c3cnn(C4CCN(C=O)CC4)c3)cc12` [Example 82, 4-(4-{3-[(R)-1-(2,6-Dichloro-3-fluorophenyl)ethyl]-1H-pyrrolo[2,3-b]-pyridin-5-yl}-pyrazol-1-yl)-piperidine-1-carbaldehyde], the IC50 lay within 0.1 to 1 µM.
Regarding `C[C@@H](c1c(Cl)ccc(F)c1Cl)c1c[nH]c2ncc(-c3cnn(C4CCN(S(C)(=O)=O)CC4)c3)cc12` [Example 83, 3-[(R)-1-(2,6-Dichloro-3-fluorophenyl)ethyl]-5-[1-(1-methane-sulfonylpiperidin-4-yl)-1H-pyrazol-4-yl]-1H-pyrrolo[2,3-b]pyridine], the IC50 was in the range of 1 to 10 µM.
For `C[C@@H](c1c(Cl)ccc(F)c1Cl)c1c[nH]c2ncc(-c3cnn(C4CCN(C(N)=O)CC4)c3)cc12` [Example 84, 4-(4-{3-[(R)-1-(2,6-Dichloro-3-fluorophenyl)ethyl]-1H-pyrrolo[2,3-b]-pyridin-5-yl}-pyrazol-1-yl)-piperidine-1-carboxamide], the concentration for half-maximal inhibition (IC50) fell in the range of 1 to 10 µM.
With `C[C@H](c1c(Cl)ccc(F)c1Cl)c1c[nH]c2ncc(-c3cnn([C@H]4CC[C@H](O)CC4)c3)cc12` [Example 86, trans-4-(4-{3-[(1S)-1-(2,6-dichloro-3-fluorophenyl)ethyl]-1H-pyrrolo[2,3-b]pyridin-5-yl}-1H-pyrazol-1-yl)cyclohexanol], the IC50 was not above 0.1 µM.
Regarding `C[C@H](c1c(Cl)ccc(F)c1Cl)c1c[nH]c2ncc(-c3cnn([C@H]4CC[C@@H](O)CC4)c3)cc12` [Example 87, cis-4-(4-{3-[(1S)-1-(2,6-dichloro-3-fluorophenyl)ethyl]-1H-pyrrolo[2,3-b]pyridin-5-yl}-1H-pyrazol-1-yl)cyclohexanol], the IC50 is not above 0.1 µM.

For a further experiment, the system named is MKN45 cells. In words: MKN45 cell proliferation assay (CellTiter-Glo). Type of experiment: cell-based. Particulars: Homo sapiens, MKN-45, 72 h, MKN45 cell line, 3 days incubation, at least duplicate experiments, read-out: Prolif. IC50. The procedure: The effect of inhibitors on the proliferation of MKN45 cells was determined using the following protocol. MKN45 cells were plated in Corning 3917 96-well white tissue culture treated plates in growth medium (RPMI, 10% FCS) at a density of 5000 cells/well in a total volume of 135 μL and incubated at 37° C., 5% CO2, 95% humidity overnight. The following day, one-tenth volume of a 10× concentration of compounds was added to the wells in an 8-point dilution series. The dilution series was composed of an initial 1:5 dilution of a 10 mM stock of compound in DMSO, followed by serial 1:4 dilutions in DMSO, then a 1:20 dilution in growth medium prior to the 1:10 dilution into the cell plate. Final DMSO concentration on the cells was 0.1%, there were control wells treated with both 0.1% DMSO and no DMSO. The typical dilution range is 10 μM to 0.6 nM. Once the compound was added to the cells, plates were incubated for 3 days at 37° C., 5% CO2 at 95% humidity. On the third day, after allowing all cells and reagents to come to room temperature, 25 μL of CellTiter-Glo reagent (Promega # G7573) was added to the wells. Plates were shaken on a platform for 10 minutes prior to reading luminescence for 0.1 seconds. The signal of the control wells was taken as 100% growth and growth inhibition was expressed as percent of control. IC50 values were determined from the percent of control data using a standard four-parameter model.
The IC50 values of exemplary compounds of the present invention determined in a cell proliferation assay using the MKN45 cell line according to the procedures described herein in at least duplicate experiments are abbreviated as follows and are shown in Table 2: A, IC50≦0.1 μM; B, 0.1 μM<IC50≦1 μM; C, 1 μM<IC50≦10 μM; D, IC50>10 μM; ND, not determined. The Example # of Table 2 corresponds to the compound example number as illustrated in the Examples section.
(Cellular ATP, detected with luciferase, serves as a proxy for viable cell number.)
Turning to `CC(c1c(Cl)ccc(F)c1Cl)c1c[nH]c2ncc(-c3ccc(O)cc3)cc12` (stereo not drawn) [Example 8, 4-{3-[1-(2,6-Dichloro-3-fluorophenyl)ethyl]-1H-pyrrolo[2,3-b]pyridin-5-yl}phenol], the IC50 lay within 1 to 10 µM.
Consider `CC(c1c(Cl)ccc(F)c1Cl)c1c[nH]c2ncc(-c3ccsc3)cc12` (stereo not drawn) [Example 9, 3-[1-(2,6-Dichloro-3-fluorophenyl)ethyl]-5-thiophen-3-yl-1H-pyrrolo[2,3-b]pyridine], for which the IC50 was 1 to 10 µM.
`CC(=O)Nc1ccc(-c2cnc3[nH]cc(C(C)c4c(Cl)ccc(F)c4Cl)c3c2)cc1` (stereo not drawn) [Example 10, N-(4-{3-[1-(2,6-Dichloro-3-fluorophenyl)ethyl]-1H-pyrrolo[2,3-b]pyridin-5-yl}phenyl)acetamide]: the IC50 lay within 1 to 10 µM.
Turning to `CC(c1c(Cl)ccc(F)c1Cl)c1c[nH]c2ncc(-c3ccc(N(C)C)cc3)cc12` (stereo not drawn) [Example 11, (4-{3-[1-(2,6-Dichloro-3-fluorophenyl)ethyl]-1H-pyrrolo[2,3-b]pyridin-5-yl}phenyl)dimethylamine], the IC50 fell in the range of 1 to 10 µM.
With `CC(c1c(Cl)ccc(F)c1Cl)c1c[nH]c2ncc(-c3cncnc3)cc12` (stereo not drawn) [Example 12, 3-[1-(2,6-Dichloro-3-fluorophenyl)ethyl]-5-pyrimidin-5-yl-1H-pyrrolo[2,3-b]pyridine], the IC50 was in the range of 1 to 10 µM.
For `CC(c1c(Cl)ccc(F)c1Cl)c1c[nH]c2ncc(-c3ccc(C(N)=O)cc3)cc12` (stereo not drawn) [Example 14, 4-{3-[1-(2,6-Dichloro-3-fluorophenyl)ethyl]-1H-pyrrolo[2,3-b]pyridin-5-yl}benzamide], the 50% inhibitory concentration (IC50) is 1 to 10 µM.
The same measure, in the same setting: as for `CC(c1c(Cl)ccc(F)c1Cl)c1c[nH]c2ncc(-c3ccc(N4CCN(C)CC4)cc3)cc12` (stereo not drawn) [Example 16, 3-[1-(2,6-Dichloro-3-fluorophenyl)ethyl]-5-[4-(4-methylpiperazin-1-yl)phenyl]-1H-pyrrolo[2,3-b]pyridine], the figure is 0.1 to 1 µM.
Turning to `CC(c1c(Cl)ccc(F)c1Cl)c1c[nH]c2ncc(-c3ccc(NS(C)(=O)=O)cc3)cc12` (stereo not drawn) [Example 17, N-(4-{3-[1-(2,6-Dichloro-3-fluorophenyl)ethyl]-1H-pyrrolo[2,3-b]pyridin-5-yl}phenyl)methanesulfonamide], the IC50 was in the range of 1 to 10 µM.
As for `CC(c1c(Cl)ccc(F)c1Cl)c1c[nH]c2ncc(-c3ccc(C(=O)NC4CCCCC4)cc3)cc12` (stereo not drawn) [Example 21, N-Cyclohexyl-4-{3-[1-(2,6-dichloro-3-fluorophenyl)ethyl]-1H-pyrrolo[2,3-b]pyridin-5-yl}benzamide], the IC50 was 1 to 10 µM.
Regarding `CC(c1c(Cl)ccc(F)c1Cl)c1c[nH]c2ncc(-c3ccc(N4CCOCC4)cc3)cc12` (stereo not drawn) [Example 25, 3-[1-(2,6-Dichloro-3-fluorophenyl)ethyl]-5-(4-morpholin-4-ylphenyl)-1H-pyrrolo[2,3-b]pyridine], the IC50 lay in the range of 0.1 to 1 µM.
